Reference: ChEMBL document CHEMBL3046848, “Synthesis and biological evaluation of novel series of thieno[2,3-d]pyrimidine derivatives as anticancer and antimicrobial agents” (2013)
Converted amounts (≈) assume the structure as drawn.

Tests used:
Assay type in all cases: functional
DU-145 = assay: Anticancer activity against Homo sapiens (human) DU145 cells after 48 hr by SRB assay; settings: DU-145, 48 h
K562 = assay: Growth inhibition of Homo sapiens (human) K562 cells at 10 uM after 48 hr by SRB assay; settings: K562, 48 h, read-out: GI
SW-620 = assay: Growth inhibition of Homo sapiens (human) SW620 cells at 10 uM after 48 hr by SRB assay; settings: SW-620, 48 h, read-out: GI
NCI-H460 = assay: Anticancer activity against Homo sapiens (human) NCI-H460 cells after 48 hr by SRB assay; settings: NCI-H460, 48 h
MOLT-4 = assay: Growth inhibition of Homo sapiens (human) MOLT4 cells at 10 uM after 48 hr by SRB assay; settings: MOLT-4, 48 h, read-out: GI
A549 = assay: Growth inhibition of Homo sapiens (human) A549/ATCC cells at 10 uM after 48 hr by SRB assay; settings: A549, 48 h, read-out: GI
SK-OV-3 = assay: Anticancer activity against Homo sapiens (human) SKOV3 cells after 48 hr by SRB assay; settings: SK-OV-3, 48 h
HT-29 = assay: Growth inhibition of Homo sapiens (human) HT-29 cells at 10 uM after 48 hr by SRB assay; settings: HT-29, 48 h, read-out: GI
Hs-578T = assay: Anticancer activity against Homo sapiens (human) Hs 578T cells after 48 hr by SRB assay
MDA-MB-231 = assay: Growth inhibition of Homo sapiens (human) MDA-MB-231/ATCC cells at 10 uM after 48 hr by SRB assay; settings: MDA-MB-231, 48 h, read-out: GI
RXF 393 = assay: Anticancer activity against Homo sapiens (human) RXF393 cells after 48 hr by SRB assay; settings: RXF 393, 48 h
HOP-92 [1] = assay: Growth inhibition of Homo sapiens (human) HOP92 cells at 10 uM after 48 hr by SRB assay; settings: HOP-92, 48 h, read-out: GI
BT-549 = assay: Anticancer activity against Homo sapiens (human) BT549 cells after 48 hr by SRB assay; settings: BT-549, 48 h
NCI-H522 [2] = assay: Anticancer activity against Homo sapiens (human) NCI-H522 cells after 48 hr by SRB assay; settings: NCI-H522, 48 h
Candida albicans = assay: Antimicrobial activity against Candida albicans ATCC2091 assessed as growth inhibition after 48 hr by two-fold serial dilution method; settings: ATCC2091, 48 h
HL-60(TB) = assay: Growth inhibition of Homo sapiens (human) HL-60(TB) cells at 10 uM after 48 hr by SRB assay; settings: HL-60, 48 h, read-out: GI
SN12C = assay: Anticancer activity against Homo sapiens (human) SN12C cells after 48 hr by SRB assay
A498 = assay: Anticancer activity against Homo sapiens (human) A498 cells after 48 hr by SRB assay; settings: A498, 48 h
LOX IMVI = assay: Anticancer activity against Homo sapiens (human) LOXIMVI cells after 48 hr by SRB assay
TK-10 = assay: Growth inhibition of Homo sapiens (human) TK10 cells at 10 uM after 48 hr by SRB assay; settings: TK-10, 48 h, read-out: GI
Malme-3M = assay: Anticancer activity against Homo sapiens (human) MALME-3M cells after 48 hr by SRB assay
NCI-H23 = assay: Anticancer activity against Homo sapiens (human) NCI-H23 cells after 48 hr by SRB assay; settings: NCI-H23, 48 h
Escherichia coli = assay: Antimicrobial activity against Escherichia coli ATCC8739 assessed as diameter of growth inhibition zone at 1 mg/ml after 24 hr by agar cup diffusion method; settings: ATCC8739, 24 h, read-out: IZ
OVCAR-5 = assay: Growth inhibition of Homo sapiens (human) OVCAR5 cells at 10 uM after 48 hr by SRB assay; settings: OVCAR-5, 48 h, read-out: GI
HCT-116 = assay: Anticancer activity against Homo sapiens (human) HCT116 cells after 48 hr by SRB assay; settings: HCT-116, 48 h
HOP-92 [3] = assay: Anticancer activity against Homo sapiens (human) HOP92 cells after 48 hr by SRB assay; settings: HOP-92, 48 h
PC-3 [4] = assay: Anticancer activity against Homo sapiens (human) PC3 cells after 48 hr by SRB assay; settings: PC-3, 48 h
OVCAR-4 = assay: Growth inhibition of Homo sapiens (human) OVCAR4 cells at 10 uM after 48 hr by SRB assay; settings: OVCAR-4, 48 h, read-out: GI
OVCAR-3 = assay: Anticancer activity against Homo sapiens (human) OVCAR3 cells after 48 hr by SRB assay; settings: OVCAR-3, 48 h
NCI-H522 [5] = assay: Growth inhibition of Homo sapiens (human) NCI-H522 cells at 10 uM after 48 hr by SRB assay; settings: NCI-H522, 48 h, read-out: GI
UO-31 = assay: Anticancer activity against Homo sapiens (human) UO31 cells after 48 hr by SRB assay; settings: UO-31, 48 h
PC-3 [6] = assay: Growth inhibition of Homo sapiens (human) PC3 cells at 10 uM after 48 hr by SRB assay; settings: PC-3, 48 h, read-out: GI
SK-MEL-2 = assay: Anticancer activity against Homo sapiens (human) SK-MEL-2 cells after 48 hr by SRB assay; settings: SK-MEL-2, 48 h
[7] = read-out: LC50 (the source's name)

## Cc1c(C(N)=O)sc2nc(C)n(/N=c3\scc(-c4ccccc4)n3Cc3ccccc3)c(=O)c12
DU-145
  GI50: 3.9 µM
  TGI: > 100 µM
DU-145; [7]
  CC50: > 100 µM
K562
  inhibition of growth at 10 µM: 91.6%
SW-620
  inhibition of growth at 10 µM: 87.5%
NCI-H460
  GI50: 2.65 µM
  TGI: 7.34 µM
NCI-H460; [7]
  CC50: > 100 µM
MOLT-4
  inhibition of growth at 10 µM: 87.9%
A549
  inhibition of growth at 10 µM: 100%
SK-OV-3
  GI50: 4.5 µM
  TGI: > 100 µM
SK-OV-3; [7]
  CC50: > 100 µM
HT-29
  inhibition of growth at 10 µM: 20.5%
Hs-578T
  GI50: 3.85 µM
  TGI: > 100 µM
Hs-578T; [7]
  CC50: > 100 µM
MDA-MB-231
  inhibition of growth at 10 µM: 57%
RXF 393
  GI50: 3.43 µM
  TGI: > 100 µM
RXF 393; [7]
  CC50: > 100 µM
HOP-92 [1]
  inhibition of growth at 10 µM: 119%
BT-549
  GI50: 2.41 µM
  TGI: 8.89 µM
BT-549; [7]
  CC50: > 100 µM
NCI-H522 [2]
  GI50: 1.73 µM
  TGI: 7.23 µM
NCI-H522 [2]; [7]
  CC50: > 100 µM
Candida albicans
  MIC: 125 µg/mL (≈ 256 µM)
HL-60(TB)
  inhibition of growth at 10 µM: 136%
SN12C
  GI50: 3.84 µM
  TGI: > 100 µM
SN12C; [7]
  CC50: > 100 µM
A498
  GI50: 2.53 µM
  TGI: 8.97 µM
A498; [7]
  CC50: > 100 µM
LOX IMVI
  GI50: 3.54 µM
  TGI: > 100 µM
LOX IMVI; [7]
  CC50: > 100 µM
TK-10
  inhibition of growth at 10 µM: 47.2%
Malme-3M
  GI50: 2.18 µM
  TGI: > 100 µM
Malme-3M; [7]
  CC50: > 100 µM
NCI-H23
  GI50: 3.12 µM
  TGI: > 100 µM
NCI-H23; [7]
  CC50: > 100 µM
Escherichia coli
  zone of inhibition at 1000 µg/mL: 15 mm
OVCAR-5
  inhibition of growth at 10 µM: 52.1%
HCT-116
  GI50: 2.13 µM
  TGI: 10 µM
HCT-116; [7]
  CC50: > 100 µM
HOP-92 [3]
  GI50: 1.34 µM
  TGI: 5.33 µM
HOP-92 [3]; [7]
  CC50: > 100 µM
PC-3 [4]
  GI50: 2.15 µM
  TGI: 8.31 µM
PC-3 [4]; [7]
  CC50: > 100 µM
OVCAR-4
  inhibition of growth at 10 µM: 66.5%
OVCAR-3
  GI50: 2.28 µM
  TGI: 8.58 µM
OVCAR-3; [7]
  CC50: > 100 µM
NCI-H522 [5]
  inhibition of growth at 10 µM: 75.1%
UO-31
  GI50: 1.66 µM
  TGI: 7 µM
UO-31; [7]
  CC50: > 100 µM
PC-3 [6]
  inhibition of growth at 10 µM: 98%
SK-MEL-2
  GI50: 3.89 µM
  TGI: 86.6 µM
SK-MEL-2; [7]
  CC50: > 100 µM
